{
  "source": "ChEMBL document CHEMBL6120941",
  "about": "“Discovery of SIRT1-Activating Hydrogen Sulfide Donating Derivatives for Efficient Resistant of Myocardial Ischemic Injury” (J Med Chem, 2024)",
  "key": {"[1]": {"target": "T1, NAD-dependent protein deacetylase sirtuin-1 (Homo sapiens) (UniProt Q96EB6)", "T1 sequence (whole entry)": "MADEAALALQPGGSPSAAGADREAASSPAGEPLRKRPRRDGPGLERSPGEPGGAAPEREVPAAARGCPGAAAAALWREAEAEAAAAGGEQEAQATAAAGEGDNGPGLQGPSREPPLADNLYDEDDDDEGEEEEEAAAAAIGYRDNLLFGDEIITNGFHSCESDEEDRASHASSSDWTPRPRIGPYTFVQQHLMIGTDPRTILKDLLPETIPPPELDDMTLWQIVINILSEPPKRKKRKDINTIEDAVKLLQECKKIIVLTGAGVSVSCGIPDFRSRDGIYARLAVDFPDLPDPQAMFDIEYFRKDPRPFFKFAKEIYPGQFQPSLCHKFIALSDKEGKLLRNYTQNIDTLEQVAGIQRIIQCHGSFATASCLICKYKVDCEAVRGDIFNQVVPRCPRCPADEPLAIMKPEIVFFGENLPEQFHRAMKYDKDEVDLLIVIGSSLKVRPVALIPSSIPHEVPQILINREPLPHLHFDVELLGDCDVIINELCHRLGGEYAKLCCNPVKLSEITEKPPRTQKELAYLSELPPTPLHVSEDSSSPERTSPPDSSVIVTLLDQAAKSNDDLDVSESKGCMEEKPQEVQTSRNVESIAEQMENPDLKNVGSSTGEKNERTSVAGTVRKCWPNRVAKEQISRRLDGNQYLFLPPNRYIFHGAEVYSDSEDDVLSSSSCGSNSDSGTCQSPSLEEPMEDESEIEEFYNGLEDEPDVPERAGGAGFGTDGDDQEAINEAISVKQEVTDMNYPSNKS", "assay": "Activation of SIRT1 (unknown origin) using RHKK-ac-AMC as substrate incubated for 2 hrs by FDL assay relative to control", "settings": "filed as activator"}, "[2]": {"system": "H9c2", "assay": "Induction of H2S release in rat H9c2 cells incubated for 24 hrs by fluorescence based imaging analysis", "assay_type": "functional, cell-based", "settings": "dose 0.625-10 µM"}, "[3]": {"target": "T2, NAD-dependent protein deacetylase sirtuin-1 (Rattus norvegicus) (UniProt A0A0G2JZ79)", "T2 sequence (whole entry)": "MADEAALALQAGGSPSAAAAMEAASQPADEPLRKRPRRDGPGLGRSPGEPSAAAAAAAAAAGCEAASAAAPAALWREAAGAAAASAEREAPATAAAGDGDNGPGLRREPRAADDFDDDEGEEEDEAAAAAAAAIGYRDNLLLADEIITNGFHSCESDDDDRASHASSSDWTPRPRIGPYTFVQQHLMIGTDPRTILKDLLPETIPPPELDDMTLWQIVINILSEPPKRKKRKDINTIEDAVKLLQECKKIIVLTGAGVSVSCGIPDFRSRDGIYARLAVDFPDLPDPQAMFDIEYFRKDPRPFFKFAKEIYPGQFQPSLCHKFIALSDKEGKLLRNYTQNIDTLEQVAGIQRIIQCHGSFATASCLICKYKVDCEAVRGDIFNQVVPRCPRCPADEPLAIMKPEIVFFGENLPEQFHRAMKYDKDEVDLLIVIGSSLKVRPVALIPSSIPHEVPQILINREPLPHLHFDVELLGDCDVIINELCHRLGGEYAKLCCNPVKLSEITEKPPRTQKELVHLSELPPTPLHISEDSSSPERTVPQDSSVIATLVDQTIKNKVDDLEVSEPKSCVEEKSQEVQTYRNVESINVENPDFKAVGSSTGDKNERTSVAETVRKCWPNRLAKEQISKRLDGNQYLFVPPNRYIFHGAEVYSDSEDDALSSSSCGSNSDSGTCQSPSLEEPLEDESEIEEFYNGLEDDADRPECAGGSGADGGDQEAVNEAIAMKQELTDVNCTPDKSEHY", "assay": "Activation of SIRT1 in CoCl2-induced cellular hypoxia injury in rat H9c2 cells at 10 uM incubated for 24 hrs in presence of GSSG by immunofluorescence based analysis", "assay_type": "cell-based"}, "[4]": {"assay": "Induction of H2S release in PBS at pH 7.4 at 100 uM measured upto 60 mins by methylene blue method", "assay_type": "functional"}, "[5]": {"target": "T2, NAD-dependent protein deacetylase sirtuin-1 (Rattus norvegicus)", "assay": "Activation of SIRT1 in CoCl2-induced cellular hypoxia injury in rat H9c2 cells at 5 to 10 uM incubated for 24 hrs by Western blot analysis", "assay_type": "cell-based", "settings": "filed as activator, dose 5-10 µM"}, "[6]": {"system": "H9c2", "assay": "Antioxidant activity against CoCl2-induced cellular hypoxia injury in rat H9c2 cells assessed as increase in hypoxia-reduced SOD level at 5 to 10 uM incubated for 24 hrs", "assay_type": "functional, cell-based", "settings": "dose 5-10 µM"}, "[7]": {"system": "H9c2", "assay": "Antioxidant activity against CoCl2-induced cellular hypoxia injury in rat H9c2 cells assessed as increase in hypoxia-reduced GSH level at 5 to 10 uM incubated for 24 hrs", "assay_type": "functional, cell-based", "settings": "dose 5-10 µM"}, "[8]": {"system": "Rattus norvegicus", "assay": "Cardioprotective activity in myocardial ischemia Sprague-Dawley rat model assessed as myocardial infarction area at 10 mg/kg, IG treated for 7 days consecutively followed by ISO administration daily for 2 days consecutively by TTC staining based analysis (reference value: 32.65 %)", "assay_type": "functional", "settings": "time 9 day"}, "[9]": {"target": "T2, NAD-dependent protein deacetylase sirtuin-1 (Rattus norvegicus)", "assay": "Activation of SIRT1 in CoCl2-induced cellular hypoxia injury in rat H9c2 cells at 5 to 10 uM incubated for 24 hrs by immunofluorescence based analysis", "assay_type": "cell-based", "settings": "filed as activator, dose 5-10 µM"}, "[10]": {"system": "Rattus norvegicus", "assay": "In vivo activation of SIRT1 in myocardial tissue of myocardial ischemia Sprague-Dawley rat model at 10 to 30 mg/kg, IG treated for 7 days consecutively followed by ISO administration daily for 2 days consecutively by Western blot analysis", "assay_type": "functional, organism-based", "settings": "dose 10-30 mg/kg, time 9.0 day"}, "[11]": {"system": "H9c2", "assay": "Cardioprotective activity against CoCl2-induced cellular hypoxia injury in rat H9c2 cells assessed as increase in PGC1-alpha level at 5 to 10 uM incubated for 24 hrs by Western blot analysis", "assay_type": "functional, cell-based", "settings": "dose 5-10 µM"}, "[12]": {"system": "H9c2", "assay": "Cardioprotective activity against CoCl2-induced cellular hypoxia injury in rat H9c2 cells assessed as inhibition of ROS-induced cell damage at 5 to 10 uM incubated for 24 hrs by fluorescence based analysis", "assay_type": "functional", "settings": "dose 5-10 µM"}, "[13]": {"system": "H9c2", "assay": "Cardioprotective activity against CoCl2-induced cellular hypoxia injury in rat H9c2 cells assessed as increase in cell viability at 30 uM incubated for 24 hrs by CCK-8 assay", "assay_type": "functional, cell-based"}, "[14]": {"system": "H9c2", "assay": "Antioxidant activity against CoCl2-induced cellular hypoxia injury in rat H9c2 cells assessed as decrease in hypoxia-induced CK level at 5 to 10 uM incubated for 24 hrs", "assay_type": "functional, cell-based", "settings": "dose 5-10 µM"}, "[15]": {"system": "H9c2", "assay": "Cardioprotective activity against CoCl2-induced cellular hypoxia injury in rat H9c2 cells assessed as improvement in nuclear shrinkage at 5 to 10 uM incubated for 24 hrs by Hoechst 33258 nuclear staining based analysis", "assay_type": "functional, cell-based", "settings": "dose 5-10 µM"}, "[16]": {"system": "H9c2", "assay": "Cardioprotective activity against CoCl2-induced cellular hypoxia injury in rat H9c2 cells assessed as cell viability at 10 uM incubated for 24 hrs by CCK-8 assay (reference value: 51.80 +/- 2.58 %)", "assay_type": "functional", "settings": "read-out: Activity"}, "[17]": {"system": "H9c2", "assay": "Cardioprotective activity against CoCl2-induced cellular hypoxia injury in rat H9c2 cells assessed as reduction in necrosis at 5 to 10 uM incubated for 24 hrs by flow cytometry", "assay_type": "functional, cell-based", "settings": "dose 5-10 µM"}, "[18]": {"system": "H9c2", "assay": "Cardioprotective activity against CoCl2-induced cellular hypoxia injury in rat H9c2 cells assessed as ROS accumulation at 5 uM incubated for 24 hrs by DCFH-DA probe based analysis (reference value: 28.03 %)", "assay_type": "functional"}},
  "note": "Active and inactive are the calls of the source. The rule behind the calls is not given here.",
  "data": [
    {"smiles": "C=CCSSCCC(=O)O[C@H]1CC[C@]2(C)[C@H]3C[C@@H](O)[C@@H]4[C@@H]([C@]5(C)CC[C@@H](C(C)(C)O)O5)CC[C@@]4(C)[C@]3(C)CC[C@H]2C1(C)C", "values": [
      {"measurement": "Activity", "setting": "[1]", "result": 177, "unit": "%"},
      {"measurement": "Activity", "setting": "[2]", "result": "Dose-dependent-effect"},
      {"measurement": "Activity", "setting": "[3]", "result": "inactive"},
      {"measurement": "Activity", "setting": "[4]", "result": "Active"},
      {"measurement": "Activity", "setting": "[5]", "result": "Active"},
      {"measurement": "Activity", "setting": "[6]", "result": "Active"},
      {"measurement": "Activity", "setting": "[7]", "result": "Active"},
      {"measurement": "Activity", "setting": "[8]", "result": 12.68, "unit": "%"},
      {"measurement": "Activity", "setting": "[9]", "result": "Active"},
      {"measurement": "Activity", "setting": "[10]", "result": "Active"},
      {"measurement": "Activity", "setting": "[11]", "result": "Active"},
      {"measurement": "inhibition", "setting": "[12]", "result": "Active"},
      {"measurement": "Activity", "setting": "[13]", "result": "inactive"},
      {"measurement": "Activity", "setting": "[14]", "result": "Active"},
      {"measurement": "Activity", "setting": "[15]", "result": "Active"},
      {"measurement": "viability at 10 µM", "setting": "[16]", "result": 97.9, "unit": "%"},
      {"measurement": "Activity", "setting": "[17]", "result": "Active"},
      {"measurement": "Activity", "setting": "[18]", "result": 6.38, "unit": "%"}
    ]}
  ]
}
